This note sets out measurements from patent US8598086B2, “3-halo-(arly)-4-iminotetrahydropicolinates and their use as herbicides” (Dow AgroSciences, LLC., priority 2009, dated 2013).

What all share (assay type): in vivo
The test system of experiment [1] is giant foxtail (Setaria faberi). The experiment in a line: Post-emergent Test I. The following applies: 4000 g ai/ha, 10 d after treatment, scale 0 (no activity) to 100 (complete plant death). As to the method: (§1) Post-emergent Test I: Weed seeds were obtained from commercial suppliers and planted into 5″-round pots containing soilless media mix (Metro-Mix 360®, Sun Gro Horticulture Canada CM Ltd. Vancouver, British Columbia) 8-12 d prior to application and cultured in a greenhouse equipped with supplemental light sources to provide a 16 h photoperiod at 24-29° C. All pots were surface irrigated. Compounds were dissolved in a 97:3 v/v (volume per volume) mixture of acetone and dimethyl sulfoxide (DMSO) and diluted to the appropriate concentration in a final application solution containing water, acetone, isopropyl alcohol, DMSO and Agri-dex (crop oil concentrate) in a 59:23:15:1.0:1.5 v/v ratio and 0.02% w/v (weight per volume) of Triton X-155 to obtain the spray solution containing the highest application rate. The high application rate was serial diluted with the above application solution to provide delivery of the compound at rates 1/2×, 1/4× and 1/8× of the highest rate (equivalent to 4.0, 2.0, 1.0, and 0.5 kg/ha, respectively). Formulated compound (2.7 mL) was applied using a DeVilbiss® compressed air sprayer at 2-4 pounds per square inch (psi) […]. Following treatment, pots were allowed to dry before being returned to the greenhouse for the duration of the experiment and subirrigated as needed. All pots were fertilized one time per week by subirrigating with Peters Peat-Lite Special® fertilizer (20-10-20). Phytotoxicity ratings were obtained 10 d after treatment. All evaluations were made on a scale of 0 to 100 where 0 represents no activity and 100 represents complete plant death.

The test system of experiment [2] is ivyleaf morningglory (Ipomoea hederacea). In words: Post-emergent Test I. The note with it: 4000 g ai/ha, 10 d after treatment, scale 0 (no activity) to 100 (complete plant death). As to the method:
as §1

Experiment [3] concerns pigweed (Amaranthus retroflexus). In words: Post-emergent Test I. The note with it: 4000 g ai/ha, 10 d after treatment, scale 0 (no activity) to 100 (complete plant death). As to the method: as §1
For experiment [4], the system named is sunflower (Helianthus annuus). In words: Post-emergent Test I. The note with it: 4000 g ai/ha, 10 d after treatment, scale 0 (no activity) to 100 (complete plant death). As to the method: as §1
For experiment [5], the system named is wild oat (Avena fatua). In words: Post-emergent Test I. The note with it: 4000 g ai/ha, 10 d after treatment, scale 0 (no activity) to 100 (complete plant death). As to the method:
as §1

The test system of experiment [6] is giant foxtail (Setaria faberi). The experiment in a line: Pre-emergent Test I. The following applies: 4000 g ai/ha, 14 d after treatment, scale 0 (no herbicidal effect) to 100 (plant death or lack of emergence). As to the method:
(§2) Pre-emergent Test I: Weed seeds were obtained from commercial suppliers and planted into round plastic pots (5-inch diameter) containing silt loam soil (23% sand, 52% silt, 29% clay, 2.9% organic matter, CEC 16.6, pH 7.2). After planting, all pots were subirrigated 16 h prior to compound application. Compounds were dissolved in a 97:3 v/v mixture of acetone and DMSO and diluted to the appropriate concentration in a final application solution containing water, acetone, isopropyl alcohol, DMSO and Agri-dex (crop oil concentrate) in a 59:23:15:1.0:1.5 v/v ratio and 0.02% w/v of Triton X-155 to obtain the spray solution containing the highest application rate. The high application rate was serial diluted with the above application solution to provide delivery of the compound at rates 1/2×, 1/4× and 1/8× of the highest rate (equivalent to 4.0, 2.0, 1.0, and 0.5 kg/ha, respectively). Formulated compound (2.7 mL) was pipetted evenly over the soil surface followed by incorporation with water (15 mL). Following treatment, pots were returned to the greenhouse for the duration of the experiment. The greenhouse was programmed for an approximate 15 h photoperiod which was maintained at about 23-29° C. during the day and 22-28° C. during the night. Nutrients and water were added on a regular basis through surface irrigation and supplemental lighting was provided with overhead metal halide 1000-Watt lamps as necessary. Herbicidal effect ratings were obtained 14 d after treatment. All evaluations were made relative to appropriate controls on a scale of 0 to 100 where 0 represents no herbicidal effect and 100 represents plant death or lack of emergence from the soil.

Experiment [7] concerns ivyleaf morningglory (Ipomoea hederacea). In words: Pre-emergent Test I. The following applies: 4000 g ai/ha, 14 d after treatment, scale 0 (no herbicidal effect) to 100 (plant death or lack of emergence). As to the method:
as §2

The subject of experiment [8] is pigweed (Amaranthus retroflexus). The experiment in a line: Pre-emergent Test I. The following applies: 4000 g ai/ha, 14 d after treatment, scale 0 (no herbicidal effect) to 100 (plant death or lack of emergence). As to the method:
as §2

The subject of experiment [9] is sunflower (Helianthus annuus). In words: Pre-emergent Test I. The following applies: 4000 g ai/ha, 14 d after treatment, scale 0 (no herbicidal effect) to 100 (plant death or lack of emergence). As to the method:
as §2

The subject of experiment [10] is wild oat (Avena fatua). The experiment in a line: Pre-emergent Test I. The following applies: 4000 g ai/ha, 14 d after treatment, scale 0 (no herbicidal effect) to 100 (plant death or lack of emergence). As to the method: as §2
Experiment [11] has as its system barnyardgrass (Echinochloa crus-galli). In words: Post-emergent Test II. The note with it: 140 g ai/ha, after 14 d, 0 = no injury, 100 = complete kill. As to the method:
(§3) Post-emergent Test II: Seeds or nutlets of the desired test plant species were planted in Sun Gro Metro-Mix® 360 planting mixture, which typically has a pH of 6.0 to 6.8 and an organic matter content of about 30 percent, in plastic pots with a surface area of 64 square centimeters. When required to ensure good germination and healthy plants, a fungicide treatment and/or other chemical or physical treatment was applied. The plants were grown for 7-21 d in a greenhouse with an approximate 15 h photoperiod which was maintained at about 23-29° C. during the day and 22-28° C. during the night. Nutrients and water were added on a regular basis and supplemental lighting was provided with overhead metal halide 1000-Watt lamps as necessary. The plants were employed for testing when they reached the first or second true leaf stage.
(§4) A weighed amount, determined by the highest rate to be tested, of each test compound was placed in a 25 mL glass vial and was dissolved in 4 mL of a 97:3 v/v mixture of acetone and DMSO to obtain concentrated stock solutions. […] The concentrated stock solutions obtained were diluted with 20 mL of an aqueous mixture containing acetone, water, isopropyl alcohol, DMSO, Atplus 411F crop oil concentrate, and Triton® X-155 surfactant in a 48.5:39:10:1.5:1.0:0.02 v/v ratio to obtain spray solutions containing the highest application rates. Additional application rates were obtained by serial dilution of 12 mL of the high rate solution into a solution containing 2 mL of 97:3 v/v mixture of acetone and DMSO and 10 mL of an aqueous mixture containing acetone, water, isopropyl alcohol, DMSO, Atplus 411F crop oil concentrate, and Triton X-155 surfactant in a 48.5:39:10:1.5:1.0:0.02 v/v ratio to obtain 1/2×, 1/4×, 1/8× and 1/16× rates of the high rate. Compound requirements are based upon a 12 mL application volume at a rate of 187 liters per hectare (L/ha). Formulated compounds were applied to the plant material with an overhead Mandel track sprayer equipped with 8002E nozzles calibrated to deliver 187 L/ha over an application area of 0.503 square meters at a spray height of 18 inches (43 cm) above the average plant canopy height. Control plants were sprayed in the same manner with the solvent blank.
(§5) The treated plants and control plants were placed in a greenhouse as described above and watered by subirrigation to prevent wash-off of the test compounds. After 14 d, the condition of the test plants as compared with that of the untreated plants was determined visually and scored on a scale of 0 to 100 percent where 0 corresponds to no injury and 100 corresponds to complete kill.

The subject of experiment [12] is bindweed (Polygonum convolvulus). In words: Post-emergent Test II. The following applies: 140 g ai/ha, after 14 d, 0 = no injury, 100 = complete kill. As to the method:
as §3, §4, §5

Experiment [13] relates to lambsquarters (Chenopodium album). The experiment in a line: Post-emergent Test II. The note with it: 140 g ai/ha, after 14 d, 0 = no injury, 100 = complete kill. As to the method: as §3, §4, §5
In experiment [14] the test system is rice (Oryza sativa). The experiment in a line: Post-emergent Test II. The note with it: 140 g ai/ha, after 14 d, 0 = no injury, 100 = complete kill. As to the method: as §3, §4, §5
The test system of experiment [15] is velvetleaf (Abutilon theophrasti). The experiment in a line: Post-emergent Test II. The note with it: 140 g ai/ha, after 14 d, 0 = no injury, 100 = complete kill. As to the method:
as §3, §4, §5

`COC(=O)C1=C(Cl)/C(=N/OS(C)(=O)=O)CC(c2ccc(Cl)c(OC)c2F)N1` (stereo not drawn) [Compound 29, 3-Chloro-6-(4-chloro-2-fluoro-3-methoxyphenyl)-4-[(E)-methanesulfonyloximino]-1,4,5,6-tetrahydropyridine-2-carboxylic acid methyl ester]: in [1], the “Phytotoxicity rating SETFA” value was 90. The “Phytotoxicity rating IPOHE” value in experiment [2] is reported as 95. Further, the “Phytotoxicity rating AMARE” value in experiment [3] was found to be 100. Further, the “Phytotoxicity rating HELAN” value in [4] was 90. In experiment [5], the “Phytotoxicity rating AVEFA” value is listed as 30. Also, in experiment [6], the “Herbicidal effect rating SETFA” value was found to be 60. In addition, the “Herbicidal effect rating IPOHE” value in experiment [7] came out at 95. Besides, the “Herbicidal effect rating AMARE” value in experiment [8] is reported as 100. Besides, the “Herbicidal effect rating HELAN” value in experiment [9] worked out at 80. Further, in [10], the “Herbicidal effect rating AVEFA” value was 30. For the same compound, the “Visual injury score ECHCG” value in experiment [11] stood at 100%. Further, in experiment [12], the “Visual injury score POLCO” value is given as 90%. The “Visual injury score CHEAL” value in experiment [13] was found to be 100%. For the same compound, the “Visual injury score ORYSA” value in [14] is on record as 0%. Besides, the “Visual injury score ABUTH” value in experiment [15] amounted to 100%.
